These compounds were tested against T1, USP7 (Homo sapiens, UniProt Q93009) (assay: USP7 Assay A (Ubitquin-Rhodamine 110 Assay)). Settings: USP7 activity in USP7 assay A and B (table does not say which assay per compound); read-out: USP7_IC50.
T1 construct: USP7, construct USP7 (208-1102) 6*His, Viva Biotech; 6xHis (C); purchased Viva Biotech
T1 sequence (Q93009 208-1102): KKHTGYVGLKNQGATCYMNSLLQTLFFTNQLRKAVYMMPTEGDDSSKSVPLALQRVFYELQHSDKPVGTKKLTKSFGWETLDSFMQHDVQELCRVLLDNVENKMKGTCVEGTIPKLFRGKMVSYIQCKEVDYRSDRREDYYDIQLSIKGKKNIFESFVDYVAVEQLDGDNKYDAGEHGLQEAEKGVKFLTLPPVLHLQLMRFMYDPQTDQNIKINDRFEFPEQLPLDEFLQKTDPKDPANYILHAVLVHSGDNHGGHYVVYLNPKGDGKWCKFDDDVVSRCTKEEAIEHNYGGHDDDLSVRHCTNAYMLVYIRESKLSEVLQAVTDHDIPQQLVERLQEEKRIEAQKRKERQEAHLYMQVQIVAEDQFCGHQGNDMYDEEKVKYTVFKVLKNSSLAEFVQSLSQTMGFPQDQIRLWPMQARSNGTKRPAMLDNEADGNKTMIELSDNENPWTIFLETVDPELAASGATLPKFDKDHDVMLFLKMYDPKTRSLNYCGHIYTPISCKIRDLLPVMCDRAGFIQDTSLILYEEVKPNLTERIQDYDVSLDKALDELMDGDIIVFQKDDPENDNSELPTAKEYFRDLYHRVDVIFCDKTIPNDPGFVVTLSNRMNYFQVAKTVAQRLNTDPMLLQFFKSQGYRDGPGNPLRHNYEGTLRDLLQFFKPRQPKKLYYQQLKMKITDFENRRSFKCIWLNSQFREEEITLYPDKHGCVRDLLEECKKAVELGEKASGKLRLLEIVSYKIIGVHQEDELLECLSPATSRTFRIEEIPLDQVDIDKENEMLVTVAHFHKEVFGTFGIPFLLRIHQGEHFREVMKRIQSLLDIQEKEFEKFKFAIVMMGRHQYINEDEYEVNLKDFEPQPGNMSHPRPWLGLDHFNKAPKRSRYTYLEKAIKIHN
Format: biochemical
How it was run: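 Enzyme and compound sat together for 30 min before Ub-Rh110 was added, in buffer of 20 mM Tris-HCl (pH 8.0), 1 mM GSH, 0.03% BGG and 0.01% Triton X-100.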
`Cc1nnc(-c2ccc(-n3ncc4c(=O)n(CC5(O)CCN(C(=O)c6ccc(F)cc6)CC5)cnc43)cc2)o1` [Compound I-712] showed an IC50 of 1 to 10 µM.
Work on `O=C(c1ccc(F)cc1)N1CCC(O)(C(CO)n2cnc3c(cnn3-c3ccc(F)cc3)c2=O)CC1` (stereo not shown) [Compound I-720] yielded an IC50 of 1 to 10 µM.
Compound `O=C(C1CCc2cn[nH]c2C1)N1CCC(O)(Cn2cnc3c(cnn3-c3ccc(F)cc3)c2=O)CC1` (stereo not shown) [Compound I-724] has an IC50 of 0.2 to 1 µM.
With `Cn1ncc2c1CC(C(=O)N1CCC(O)(Cn3cnc4c(cnn4-c4ccc(F)cc4)c3=O)CC1)CC2` (stereo not shown) [Compound I-725] the IC50 was 1 to 10 µM.
`O=C(c1cnn(C2CC2)c1)N1CCC(O)(Cn2cnc3c(cnn3-c3ccc(F)cc3)c2=O)CC1` [Compound I-726] showed an IC50 of 0.2 to 1 µM.
`Cn1cc(C2CCC(C(=O)N3CCC(O)(Cn4cnc5c(cnn5-c5ccc(F)cc5)c4=O)CC3)CC2)cn1` (stereo not shown) [Compound I-727] showed an IC50 of 0.2 to 1 µM.
`Cn1cc(C2CCC(C(=O)N3CCC(O)(Cn4cnc5c(cnn5-c5ccc(F)cc5)c4=O)CC3)CC2)cn1` (stereo not shown) [Compound I-728] showed an IC50 of 0.2 to 1 µM.
`O=C(C[C@H](C(F)F)n1ccc(Cl)n1)N1CCC(O)(Cn2cnc3c(cnn3-c3ccc(F)cc3)c2=O)CC1` [Compound I-731] was tested, and the IC50 was under 0.2 µM.
`O=C(C[C@@H](C(F)F)n1ccc(Cl)n1)N1CCC(O)(Cn2cnc3c(cnn3-c3ccc(F)cc3)c2=O)CC1` [Compound I-732] was tested, and the IC50 was 1 to 10 µM.
`O=C(C[C@H](C(F)F)n1cc(Cl)cn1)N1CCC(O)(Cn2cnc3c(cnn3-c3ccc(F)cc3)c2=O)CC1` [Compound I-733] gave an IC50 of 0.2 to 1 µM.
`O=C(C[C@@H](C(F)F)n1cc(Cl)cn1)N1CCC(O)(Cn2cnc3c(cnn3-c3ccc(F)cc3)c2=O)CC1` [Compound I-734] was tested, and the IC50 was over 10 µM.
In the case of `Cc1cnn([C@H](CC(=O)N2CCC(O)(Cn3cnc4c(cnn4-c4ccc(F)cc4)c3=O)CC2)C(F)F)c1` [Compound I-735], the IC50 is reported as 1 to 10 µM.
For `O=C(C1CCC(Oc2ccc(F)cn2)CC1)N1CCC(O)(Cn2cnc3c(cnn3-c3ccc(F)cc3)c2=O)CC1` (stereo not shown) [Compound I-737], the IC50 was under 0.2 µM.
`O=C(C1CCC(Oc2ccc(F)cn2)CC1)N1CCC(O)(Cn2cnc3c(cnn3-c3ccc(F)cc3)c2=O)CC1` (stereo not shown) [Compound I-738] showed an IC50 of 0.2 to 1 µM.
Compound `O=C(C1CCC(Oc2cccc(F)n2)CC1)N1CCC(O)(Cn2cnc3c(cnn3-c3ccc(F)cc3)c2=O)CC1` (stereo not shown) [Compound I-739] has an IC50 of under 0.2 µM.
`O=C(C1CCC(Oc2cccc(F)n2)CC1)N1CCC(O)(Cn2cnc3c(cnn3-c3ccc(F)cc3)c2=O)CC1` (stereo not shown) [Compound I-740] was tested, and the IC50 was 0.2 to 1 µM.
`O=C(C1CCC(Oc2cccc(F)n2)CC1)N1CCC(O)(Cn2cnc3c(cnn3-c3ccccc3)c2=O)CC1` (stereo not shown) [Compound I-741] showed an IC50 of under 0.2 µM.
`O=C(C1CCC(Oc2cccc(F)n2)CC1)N1CCC(O)(Cn2cnc3c(cnn3-c3ccccc3)c2=O)CC1` (stereo not shown) [Compound I-742] was tested, and the IC50 was 0.2 to 1 µM.
`O=C(C1CCC(Oc2ccc(F)cn2)CC1)N1CCC(O)(Cn2cnc3c(cnn3-c3ccccc3)c2=O)CC1` (stereo not shown) [Compound I-743] gave an IC50 of 1 to 10 µM.
With `O=C(C1CCC(Oc2ccc(F)cn2)CC1)N1CCC(O)(Cn2cnc3c(cnn3-c3ccccc3)c2=O)CC1` (stereo not shown) [Compound I-744] the IC50 was 0.2 to 1 µM.
`CC1(C(=O)N2CCC(O)(Cn3cnc4c(cnn4-c4ccc(F)cc4)c3=O)CC2)CCC(Oc2ccccn2)CC1` (stereo not shown) [Compound I-745] gave an IC50 of 1 to 10 µM.
`CC1(C(=O)N2CCC(O)(Cn3cnc4c(cnn4-c4ccc(F)cc4)c3=O)CC2)CCC(Oc2ccccn2)CC1` (stereo not shown) [Compound I-746] showed an IC50 of 1 to 10 µM.
In the case of `O=C(C1CCC(Oc2ncccn2)CC1)N1CCC(O)(Cn2cnc3c(cnn3-c3ccc(F)cc3)c2=O)CC1` (stereo not shown) [Compound I-747], the IC50 is reported as 1 to 10 µM.
In the case of `O=C(C1CCC(Oc2ncccn2)CC1)N1CCC(O)(Cn2cnc3c(cnn3-c3ccc(F)cc3)c2=O)CC1` (stereo not shown) [Compound I-748], the IC50 is reported as 0.2 to 1 µM.
Work on `O=C(C1CCC(Oc2cccnc2)CC1)N1CCC(O)(Cn2cnc3c(cnn3-c3ccc(F)cc3)c2=O)CC1` (stereo not shown) [Compound I-749] yielded an IC50 of under 0.2 µM.
`O=C(C1CCC(Oc2cccnc2)CC1)N1CCC(O)(Cn2cnc3c(cnn3-c3ccc(F)cc3)c2=O)CC1` (stereo not shown) [Compound I-750] showed an IC50 of 0.2 to 1 µM.
`O=C(C1CCC(Oc2ccncc2)CC1)N1CCC(O)(Cn2cnc3c(cnn3-c3ccc(F)cc3)c2=O)CC1` (stereo not shown) [Compound I-751] was tested, and the IC50 was 1 to 10 µM.
For `O=C(C1CCC(Oc2ccncc2)CC1)N1CCC(O)(Cn2cnc3c(cnn3-c3ccc(F)cc3)c2=O)CC1` (stereo not shown) [Compound I-752], the IC50 was under 0.2 µM.
Work on `Cn1ccc(OC2CCC(C(=O)N3CCC(O)(Cn4cnc5c(cnn5-c5ccc(F)cc5)c4=O)CC3)CC2)n1` (stereo not shown) [Compound I-753] yielded an IC50 of 0.2 to 1 µM.
With `Cn1ccc(OC2CCC(C(=O)N3CCC(O)(Cn4cnc5c(cnn5-c5ccc(F)cc5)c4=O)CC3)CC2)n1` (stereo not shown) [Compound I-754] the IC50 was 0.2 to 1 µM.
Work on `Cc1cc(OC2CCC(C(=O)N3CCC(O)(Cn4cnc5c(cnn5-c5ccc(F)cc5)c4=O)CC3)CC2)no1` (stereo not shown) [Compound I-755] yielded an IC50 of 0.2 to 1 µM.
`Cc1cc(OC2CCC(C(=O)N3CCC(O)(Cn4cnc5c(cnn5-c5ccc(F)cc5)c4=O)CC3)CC2)no1` (stereo not shown) [Compound I-756] was tested, and the IC50 was 0.2 to 1 µM.
`Cn1cc(OC2CCC(C(=O)N3CCC(O)(Cn4cnc5c(cnn5-c5ccc(F)cc5)c4=O)CC3)CC2)cn1` (stereo not shown) [Compound I-757] showed an IC50 of 0.2 to 1 µM.
`Cn1cc(OC2CCC(C(=O)N3CCC(O)(Cn4cnc5c(cnn5-c5ccc(F)cc5)c4=O)CC3)CC2)cn1` (stereo not shown) [Compound I-758] was tested, and the IC50 was 0.2 to 1 µM.
Work on `O=C(N1CCC(O)(Cn2cnc3c(cnn3-c3ccc(F)cc3)c2=O)CC1)N1CC[C@H]1Cc1ccccc1` [Compound I-760] yielded an IC50 of 1 to 10 µM.
Work on `O=C(N1CCC(O)(Cn2cnc3c(cnn3-c3ccc(F)cc3)c2=O)CC1)N1CCc2cn[nH]c2C1` [Compound I-761] yielded an IC50 of under 0.2 µM.
`Cn1ncc2c1CN(C(=O)N1CCC(O)(Cn3cnc4c(cnn4-c4ccc(F)cc4)c3=O)CC1)CC2` [Compound I-762] was tested, and the IC50 was 1 to 10 µM.
`Cn1nccc1NC1CCC(C(=O)N2CCC(O)(Cn3cnc4c(cnn4-c4ccc(F)cc4)c3=O)CC2)CC1` (stereo not shown) [Compound I-763] gave an IC50 of 1 to 10 µM.
Work on `Cn1nccc1NC1CCC(C(=O)N2CCC(O)(Cn3cnc4c(cnn4-c4ccc(F)cc4)c3=O)CC2)CC1` (stereo not shown) [Compound I-764] yielded an IC50 of 0.2 to 1 µM.
`Cn1ccc(NC2CCC(C(=O)N3CCC(O)(Cn4cnc5c(cnn5-c5ccc(F)cc5)c4=O)CC3)CC2)n1` (stereo not shown) [Compound I-765] showed an IC50 of 1 to 10 µM.
With `Cn1ccc(NC2CCC(C(=O)N3CCC(O)(Cn4cnc5c(cnn5-c5ccc(F)cc5)c4=O)CC3)CC2)n1` (stereo not shown) [Compound I-766] the IC50 was 0.2 to 1 µM.
`O=C(C1CCC(Nc2ccccc2)CC1)N1CCC(O)(Cn2cnc3c(cnn3-c3ccc(F)cc3)c2=O)CC1` (stereo not shown) [Compound I-767] showed an IC50 of 0.2 to 1 µM.
With `O=C(C1CCC(Nc2ccccc2)CC1)N1CCC(O)(Cn2cnc3c(cnn3-c3ccc(F)cc3)c2=O)CC1` (stereo not shown) [Compound I-768] the IC50 was under 0.2 µM.
In the case of `O=C(C1CCC(NC2CC2)CC1)N1CCC(O)(Cn2cnc3c(cnn3-c3ccc(F)cc3)c2=O)CC1` (stereo not shown) [Compound I-769], the IC50 is reported as 0.2 to 1 µM.
`O=C(c1cnc(NC2CC2)o1)N1CCC(O)(Cn2cnc3c(cnn3-c3ccc(Cl)cc3)c2=O)CC1` [Compound I-771] gave an IC50 of 0.2 to 1 µM.
`Cn1cc(C(=O)N2CCC(O)(Cn3cnc4c(cnn4-c4ccc(Cl)cc4)c3=O)CC2)cn1` [Compound I-772] showed an IC50 of 0.2 to 1 µM.
`Cn1cc(-c2ccc(-n3ncc4c(=O)n(CC5(O)CCN(C(=O)C6(C)CC6)CC5)cnc43)cc2)cn1` [Compound I-775] gave an IC50 of 0.2 to 1 µM.
With `Cn1cc(-c2ccc(-n3ncc4c(=O)n(CC5(O)CCN(C(=O)c6cnc(C7CC7)o6)CC5)cnc43)cc2)cn1` [Compound I-776] the IC50 was under 0.2 µM.
For `Cc1cnn(-c2ccc(-n3ncc4c(=O)n(CC5(O)CCN(C(=O)c6cnc(C7CC7)o6)CC5)cnc43)cc2)c1` [Compound I-779], the IC50 was under 0.2 µM.
Work on `O=C(c1cnc(C2CC2)o1)N1CCC(O)(Cn2cnc3c(cnn3-c3ccc(-n4cccn4)cc3)c2=O)CC1` [Compound I-780] yielded an IC50 of under 0.2 µM.
In the case of `CC1(C(=O)N2CCC(O)(Cn3cnc4c(cnn4-c4ccc(-n5cccn5)cc4)c3=O)CC2)CC1` [Compound I-781], the IC50 is reported as 0.2 to 1 µM.
Work on `CC1(C(=O)N2CCC(O)(Cn3cnc4c(cnn4-c4ccc(-n5cccn5)cc4)c3=O)CC2)CCC1` [Compound I-782] yielded an IC50 of under 0.2 µM.
Compound `C[C@@]1(O)CCN(c2ccc(-n3ncc4c(=O)n(CC5(O)CCN(C(=O)C6CCCCC6)CC5)cnc43)cc2)C1` [Compound I-783] has an IC50 of 0.2 to 1 µM.
Compound `O=C(C[C@@H](C(F)F)n1ccc(F)n1)N1CCC(O)(Cn2cnc3c(cnn3-c3ccc(N4CC5CC5C4)cc3)c2=O)CC1` (stereo partly shown) [Compound I-784] has an IC50 of under 0.2 µM.
With `O=C(C[C@H](C(F)F)n1ccc(F)n1)N1CCC(O)(Cn2cnc3c(cnn3-c3ccc(N4CC5CC5C4)cc3)c2=O)CC1` (stereo partly shown) [Compound I-785] the IC50 was 0.2 to 1 µM.
With `CC1(C(=O)N2CCC(O)(Cn3cnc4c(cnn4-c4ccc(NC5CCC(F)(F)CC5)cc4)c3=O)CC2)CC1` [Compound I-786] the IC50 was 0.2 to 1 µM.
`O=C(C[C@H](C(F)F)n1ccc(F)n1)N1CCC(O)(Cn2cnc3c(cnn3-c3cccc(N4CCOCC4)c3)c2=O)CC1` [Compound I-788] gave an IC50 of 1 to 10 µM.
Compound `O=C(C[C@@H](C(F)F)n1ccc(F)n1)N1CCC(O)(Cn2cnc3c(cnn3-c3cccc(N4CCOCC4)c3)c2=O)CC1` [Compound I-789] has an IC50 of under 0.2 µM.
`O=C(C[C@@H](C(F)F)n1ccc(F)n1)N1CCC(O)(Cn2cnc3c(cnn3-c3cccc(N4CC5CC5C4)c3)c2=O)CC1` (stereo partly shown) [Compound I-790] was tested, and the IC50 was under 0.2 µM.

Same assay, conditions: USP7 assay A and B (table does not say which assay per compound); read-out: USP7_IC50
With `O=C(c1ccc(OC(F)F)cc1)N1CCC(O)(Cn2cnc3c(cnn3-c3cnn(C4CC4)c3)c2=O)CC1` [Compound I-705] the IC50 was 1 to 10 µM.
`CN(C)C(=O)N1CCC(O)(Cn2cnc3c(cc(-c4ccccc4)n3-c3ccc(F)cc3)c2=O)CC1` [Compound I-706] was tested, and the IC50 was 1 to 10 µM.
`CN(C)c1ccc(-n2ncc3c(=O)n(CC4(O)CCN(C(=O)c5ccc(F)cc5)CC4)cnc32)cc1` [Compound I-707] showed an IC50 of 0.2 to 1 µM.
In the case of `O=C(c1ccc(F)cc1)N1CCC(O)(Cn2cnc3c(cnn3-c3ccc(C4(O)CC4)cc3)c2=O)CC1` [Compound I-713], the IC50 is reported as 1 to 10 µM.
`Cn1ccc(Oc2ccc(C(=O)N3CCC(O)(Cn4cnc5c(cnn5-c5ccc(F)cc5)c4=O)CC3)cc2)n1` [Compound I-719] showed an IC50 of 1 to 10 µM.
